Where a SMILES comes first, the peptide text is derived from it. [ ]: non-standard residue; d: D form. The star is where a group is joined. βGlc = OC[C@H]1O[C@@H](*)[C@H](O)[C@@H](O)[C@@H]1O; Nle = CCCC[C@H](N)C(=O)O
Key:
Format in all cases: cell-based
VPAC2 = target: T1, VPAC2 (Homo sapiens, UniProt P41587); assay: VPAC2 agonist data (Table 2)
T1 sequence (P41587 24-438): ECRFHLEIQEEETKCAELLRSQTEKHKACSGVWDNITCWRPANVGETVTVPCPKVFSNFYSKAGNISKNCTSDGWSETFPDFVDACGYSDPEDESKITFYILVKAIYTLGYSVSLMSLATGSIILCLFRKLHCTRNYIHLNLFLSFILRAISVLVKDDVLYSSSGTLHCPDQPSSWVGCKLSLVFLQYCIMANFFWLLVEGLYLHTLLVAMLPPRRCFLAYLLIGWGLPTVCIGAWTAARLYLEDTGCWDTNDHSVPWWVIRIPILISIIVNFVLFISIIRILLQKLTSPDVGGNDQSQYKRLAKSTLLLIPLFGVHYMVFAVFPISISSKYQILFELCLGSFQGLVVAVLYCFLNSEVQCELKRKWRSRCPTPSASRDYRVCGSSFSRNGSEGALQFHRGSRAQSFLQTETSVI

VPAC1 = target: T2, VPAC1 (Homo sapiens, UniProt P32241); assay: VPAC1 agonist data (Table 2)
T2 sequence (P32241 31-457): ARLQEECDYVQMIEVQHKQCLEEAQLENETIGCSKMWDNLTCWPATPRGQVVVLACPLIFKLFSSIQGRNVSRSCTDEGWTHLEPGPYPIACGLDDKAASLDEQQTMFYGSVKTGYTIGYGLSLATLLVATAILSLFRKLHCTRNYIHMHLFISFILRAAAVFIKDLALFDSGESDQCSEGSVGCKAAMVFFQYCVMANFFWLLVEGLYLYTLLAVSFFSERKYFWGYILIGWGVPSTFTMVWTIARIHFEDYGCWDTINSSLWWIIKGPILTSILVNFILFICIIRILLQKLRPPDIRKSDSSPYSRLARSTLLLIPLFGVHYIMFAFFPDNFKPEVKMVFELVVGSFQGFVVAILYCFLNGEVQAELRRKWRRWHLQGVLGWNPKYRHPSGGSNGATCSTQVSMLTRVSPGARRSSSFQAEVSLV

PAC1 = target: T3, PAC1 (Homo sapiens, UniProt P41586); assay: PAC1 agonist data (Table 2); parameters: host or cells: CHO (clonal line PAC1-CHO)
T3 sequence (P41586 21-468): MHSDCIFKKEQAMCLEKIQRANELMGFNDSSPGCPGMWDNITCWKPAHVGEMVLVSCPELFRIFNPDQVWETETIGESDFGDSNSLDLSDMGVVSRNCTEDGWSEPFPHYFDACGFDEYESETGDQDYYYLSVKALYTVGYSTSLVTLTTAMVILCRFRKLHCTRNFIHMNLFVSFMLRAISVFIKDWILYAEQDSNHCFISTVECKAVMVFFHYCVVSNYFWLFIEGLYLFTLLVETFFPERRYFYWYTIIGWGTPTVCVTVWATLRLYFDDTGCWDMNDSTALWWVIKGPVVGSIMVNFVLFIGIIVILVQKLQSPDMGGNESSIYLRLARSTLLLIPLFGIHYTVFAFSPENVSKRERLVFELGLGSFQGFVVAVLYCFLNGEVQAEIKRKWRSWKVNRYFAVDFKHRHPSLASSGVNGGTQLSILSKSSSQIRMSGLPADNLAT
Description: A custom DNA clone of the human PAC1 gene with 3 hemagglutinin (HA) tags inserted 3′ to the signal peptide sequence (to avoid proteolytic loss) was obtained from Genecopoeia (Rockville, MD). The construct was electroporated into Chinese Hamster Ovary (CHO) cells, and selected for with 500 μg/mL of G418. The resulting population was screened for high expressing clones, and one such clone selected for further analysis. […] This cell line was used for all molecular pharmacology experiments. The cells were maintained in DMEM/F12 with 10% heat-inactivated FBS, 1× penicillin/streptomycin, and 500 μg/mL G418, at 37° C. and 5% CO2.
All molecular pharmacology experiments were carried out using a FLIPR Tetra from Molecular Devices (Sunnyvale, CA), set to image calcium flux using the manufacturer's recommended settings and protocols. The day before an experiment, the PAC1-CHO cells were split into 384 well black walled, clear bottom microplates, 10,000 cells per well. The cells were recovered overnight in growth medium (as above). The next day, the growth medium was replaced with Calcium 6 dye (Molecular Devices) using the manufacturer recommended buffer with 2.5 mM probenecid. The cells were incubated for 2 hours in the culture incubator, and removed during the last 15 minutes to allow equilibration to room temperature. Compound as indicated below was added to the cells using a 384 tip block, with real time monitoring before, during, and 15 minutes after compound addition. The resulting calcium flux was recorded, and the maximum-minimum response over the entire observation time calculated and reported as the mean±SEM (4 wells per point).
For agonist mode experiments, compound was added in an 11 point concentration curve, with a vehicle control (buffer). […] The response was analyzed using a 3 variable non-linear curve fit, and the EC50 (nM) and EMax (%) calculated and reported (Prism, GraphPad, La Jolla, CA).

Compound	EC50 (VPAC2)	Emax (VPAC2)	EC50 (VPAC1)	Emax (VPAC1)	EC50 (PAC1)	Emax (PAC1)
CCCC[C@H](NC(=O)[C@H](CCC(N)=O)NC(=O)[C@H](CCCCN)NC(=O)[C@H](CCCNC(=N)N)NC(=O)[C@H](Cc1ccc(O)cc1)NC(=O)[C@H](CCCNC(=N)N)NC(=O)[C@H](CO)NC(=O)[C@H](Cc1ccc(O)cc1)NC(=O)[C@H](CO)NC(=O)[C@H](CC(=O)O)NC(=O)[C@@H](NC(=O)[C@H](Cc1ccccc1)NC(=O)[C@@H](NC(=O)CNC(=O)[C@H](CC(=O)O)NC(=O)[C@@H](CO)NC(=O)[C@@H](N)Cc1c[nH]cn1)[C@@H](C)CC)[C@@H](C)O)C(=O)N[C@@H](C)C(=O)N[C@H](C(=O)N[C@@H](CCCCN)C(=O)N[C@@H](CCCCN)C(=O)N[C@@H](Cc1ccc(O)cc1)C(=O)N[C@@H](CC(C)C)C(=O)N[C@@H](C)C(=O)N[C@@H](C)C(=O)N[C@H](C(=O)N[C@@H](CO[C@@H]1O[C@H](CO)[C@@H](O)[C@H](O)[C@H]1O)C(N)=O)C(C)C)C(C)C	654 nM	107%	4.8 nM	90%	54.5 nM	86%
CCCC[C@H](NC(=O)[C@H](CCC(N)=O)NC(=O)[C@H](CCCCN)NC(=O)[C@H](CCCNC(=N)N)NC(=O)[C@H](Cc1ccc(O)cc1)NC(=O)[C@H](CCCNC(=N)N)NC(=O)[C@H](CO)NC(=O)[C@H](Cc1ccc(O)cc1)NC(=O)[C@H](CO)NC(=O)[C@H](CC(=O)O)NC(=O)[C@@H](NC(=O)[C@H](Cc1ccccc1)NC(=O)[C@@H](NC(=O)CNC(=O)[C@H](CC(=O)O)NC(=O)[C@@H](CO)NC(=O)[C@@H](N)Cc1c[nH]cn1)[C@@H](C)CC)[C@@H](C)O)C(=O)N[C@@H](C)C(=O)N[C@H](C(=O)N[C@@H](CCCCN)C(=O)N[C@@H](CCCCN)C(=O)N[C@@H](Cc1ccc(O)cc1)C(=O)N[C@@H](CC(C)C)C(=O)N[C@@H](C)C(=O)N[C@@H](C)C(=O)N[C@H](C(=O)N[C@@H](CC(C)C)C(=O)N[C@@H](CO[C@@H]1O[C@H](CO)[C@@H](O)[C@H](O)[C@H]1O)C(N)=O)C(C)C)C(C)C	241 nM	104%	1.3 nM	90%	25.5 nM	85%
CCCC[C@H](NC(=O)[C@H](CCC(N)=O)NC(=O)[C@H](CCCCN)NC(=O)[C@H](CCCNC(=N)N)NC(=O)[C@H](Cc1ccc(O)cc1)NC(=O)[C@H](CCCNC(=N)N)NC(=O)[C@H](CO)NC(=O)[C@H](Cc1ccc(O)cc1)NC(=O)[C@H](CO)NC(=O)[C@H](CC(=O)O)NC(=O)[C@H](C)NC(=O)[C@H](Cc1ccccc1)NC(=O)[C@@H](NC(=O)CNC(=O)[C@H](CC(=O)O)NC(=O)[C@@H](CO)NC(=O)[C@@H](N)Cc1c[nH]cn1)[C@@H](C)CC)C(=O)N[C@@H](C)C(=O)N[C@H](C(=O)N[C@@H](CCCCN)C(=O)N[C@@H](CCCCN)C(=O)N[C@@H](Cc1ccc(O)cc1)C(=O)N[C@@H](CC(C)C)C(=O)N[C@@H](C)C(=O)N[C@@H](C)C(=O)N[C@H](C(=O)N[C@@H](CO[C@@H]1O[C@H](CO)[C@@H](O)[C@H](O)[C@H]1O)C(N)=O)C(C)C)C(C)C (H-H[dS]DGIFADSYSRYRKQ[Nle]AVKKYLAAVS(βGlc)-NH2; C-terminus assumed)	–	–	1370 nM	85%	–	–
CCCC[C@H](NC(=O)[C@H](CCC(N)=O)NC(=O)[C@H](CCCCN)NC(=O)[C@H](CCCNC(=N)N)NC(=O)[C@H](Cc1ccc(O)cc1)NC(=O)[C@H](CCCNC(=N)N)NC(=O)[C@H](CO)NC(=O)[C@H](Cc1ccc(O)cc1)NC(=O)[C@H](CO)NC(=O)[C@H](CC(=O)O)NC(=O)[C@H](C)NC(=O)[C@H](Cc1ccccc1)NC(=O)[C@@H](NC(=O)CNC(=O)[C@H](CC(=O)O)NC(=O)[C@@H](CO)NC(=O)[C@@H](N)Cc1c[nH]cn1)[C@@H](C)CC)C(=O)N[C@@H](C)C(=O)N[C@H](C(=O)N[C@@H](CCCCN)C(=O)N[C@@H](CCCCN)C(=O)N[C@@H](Cc1ccc(O)cc1)C(=O)N[C@@H](CC(C)C)C(=O)N[C@@H](C)C(=O)N[C@@H](C)C(=O)N[C@H](C(=O)N[C@@H](CO[C@@H]1O[C@H](CO)[C@@H](O)[C@H](O)[C@H]1O)C(=O)N[C@@H](CC(C)C)C(N)=O)C(C)C)C(C)C (H-H[dS]DGIFADSYSRYRKQ[Nle]AVKKYLAAVS(βGlc)L-NH2; C-terminus assumed)	–	–	1620 nM	78%	–	–
CCCC[C@H](NC(=O)[C@H](CCC(N)=O)NC(=O)[C@H](CCCCN)NC(=O)[C@H](CCCNC(=N)N)NC(=O)[C@H](Cc1ccc(O)cc1)NC(=O)[C@H](CCCNC(=N)N)NC(=O)[C@H](CO)NC(=O)[C@H](Cc1ccc(O)cc1)NC(=O)[C@H](CO)NC(=O)[C@H](CC(=O)O)NC(=O)[C@@H](NC(=O)[C@H](Cc1ccccc1)NC(=O)[C@@H](NC(=O)CNC(=O)[C@H](CC(=O)O)NC(=O)[C@@H](CO)NC(=O)[C@@H](N)Cc1c[nH]cn1)[C@@H](C)CC)[C@@H](C)O)C(=O)N[C@@H](C)C(=O)N[C@H](C(=O)N[C@@H](CCCCN)C(=O)N[C@@H](CCCCN)C(=O)N[C@@H](Cc1ccc(O)cc1)C(=O)N[C@@H](CC(C)C)C(=O)N[C@@H](C)C(=O)N[C@@H](C)C(=O)N[C@@H](CC(C)C)C(=O)N[C@@H](CO[C@@H]1O[C@H](CO)[C@@H](O)[C@H](O)[C@H]1O)C(=O)N[C@@H](CC(C)C)C(N)=O)C(C)C (H-H[dS]DGIFTDSYSRYRKQ[Nle]AVKKYLAALS(βGlc)L-NH2; C-terminus assumed)	> 2500 nM	-95%	5.9 nM	93%	> 250 nM	-79%

From patent US20240294595A1, “GLYCOPEPTIDES AND USES THEREOF” (Arizona Board of Regents on Behalf of the University of …, priority 2013, published 2024)
